From the supplement of paper PMC13380429
Counter-ions that a name gives are not always drawn.

What was measured:
U2OS [1] = assay: cell viability relative to DMSO; higher = less toxic; conditions: 72 h
Vero E6 [2] = assay: as above; conditions: 72 h
Calu-3 [3] = assay: as above; conditions: 72 h
Caco-2 [4] = assay: as above; conditions: 72 h
HepG2 [5] = assay: as above; conditions: 72 h
[6] = test system: A549-ACE2 infected with SARS-CoV-2; assay: morphology score (similarity to uninfected cells); higher = more like uninfected cells; conditions: 24 h
[7] = test system: A549-ACE2 infected with SARS-CoV-2; assay: cell count relative to DMSO; higher = less toxic; conditions: 24 h
A549-ACE2 = assay: drug-induced phospholipidosis relative to tamoxifen; higher = more phospholipidosis
[8] = test system: A549-ACE2 infected with SARS-CoV-2; assay: SARS-CoV-2 infection rate relative to DMSO; higher = more infection; conditions: 24 h
U2OS [9] = assay: drug sensitivity score (DSS) for viability; higher = more toxic; extreme values may be limits of the assay; conditions: 72 h
Vero E6 [10] = assay: as above; conditions: 72 h
Calu-3 [11] = assay: as above; conditions: 72 h
Caco-2 [12] = assay: as above; conditions: 72 h
HepG2 [13] = assay: as above; conditions: 72 h
U2OS [14] = assay: relative viability EC50 (midpoint between 100% and the lowest measured viability); higher = less toxic; conditions: 72 h
Vero E6 [15] = assay: as above; conditions: 72 h
Calu-3 [16] = assay: as above; conditions: 72 h
Caco-2 [17] = assay: as above; conditions: 72 h
HepG2 [18] = assay: as above; conditions: 72 h

Oc1cc(CNC(=S)/C=C/c2cc(O)c(O)c(Br)c2)cc(O)c1O [NT157]
Conditions | SARS-CoV-2 infection rate, [8] [%] | cell count, [7] [%] | cell viability, Caco-2 [4] [%] | cell viability, Calu-3 [3] [%] | cell viability, HepG2 [5] [%] | cell viability, U2OS [1] [%] | cell viability, Vero E6 [2] [%] | morphology score, [6]
1 nM | – | – | 78.4 | 104 | 101 | 102 | 89.7 | –
10 nM | – | – | 102 | 101 | 101 | 98.2 | 102 | –
100 nM | – | – | 99.4 | 109 | 95.6 | 99.8 | 92.8 | –
0.1 µM | 104 | 104 | – | – | – | – | – | 0.06
0.3 µM | 103 | 107 | – | – | – | – | – | 0.02
1000 nM | – | – | 90.2 | 103 | 74.1 | 64.9 | 91 | –
1 µM | 105 | 106 | – | – | – | – | – | -0.23
3 µM | 101 | 93 | – | – | – | – | – | -0.08
10000 nM | – | – | 25.7 | 25.6 | 25.4 | 23.5 | 32.9 | –

drug-induced phospholipidosis [%], A549-ACE2
Conditions | 0.3 µM | 0.833333 µM | 3.33333 µM | 6.66667 µM | 10 µM
24 h | 2.74 | -0.68 | -0.71 | 22 | 29.2
48 h | 2.03 | -0.74 | -5.67 | – | –
72 h | 3.76 | -0.841 | – | – | –

Conditions | drug sensitivity score | relative viability EC50 [µM]
Caco-2 [12] | 5.8 | –
Caco-2 [17] | – | 2.1
Calu-3 [11] | 3.9 | –
Calu-3 [16] | – | 3.38
HepG2 [13] | 7.4 | –
HepG2 [18] | – | 1.35
U2OS [9] | 8.8 | –
U2OS [14] | – | 1.07
Vero E6 [10] | 5.2 | –
Vero E6 [15] | – | 2.08

CCN1CCN(c2ccc(Nc3cc(N(C)C(=O)Nc4c(Cl)c(OC)cc(OC)c4Cl)ncn3)cc2)CC1 [NVP-BGJ398]
Conditions | SARS-CoV-2 infection rate, [8] [%] | cell count, [7] [%] | cell viability, Caco-2 [4] [%] | cell viability, Calu-3 [3] [%] | cell viability, HepG2 [5] [%] | cell viability, U2OS [1] [%] | cell viability, Vero E6 [2] [%] | morphology score, [6]
1 nM | – | – | 109 | 116 | 111 | 104 | 91.7 | –
10 nM | – | – | 102 | 102 | 100 | 95.1 | 101 | –
100 nM | – | – | 103 | 106 | 110 | 98.1 | 90.5 | –
0.1 µM | 99 | 91 | – | – | – | – | – | 0.05
0.3 µM | 100 | 91 | – | – | – | – | – | -0.02
1000 nM | – | – | 95.4 | 99.4 | 106 | 89.5 | 90.8 | –
1 µM | 110 | 98 | – | – | – | – | – | 0.02
3 µM | 97 | 93 | – | – | – | – | – | 0.2
10000 nM | – | – | 76.1 | 89.8 | 68 | 90.5 | 66.2 | –

drug-induced phospholipidosis [%], A549-ACE2
Conditions | 0.3 µM | 0.833333 µM | 3.33333 µM | 6.66667 µM | 10 µM | 30 µM
24 h | 7.01 | -3.2 | 0.41 | 0.28 | 8.33 | 40.8
48 h | 5.03 | -4.72 | -2.05 | 0.17 | 2.69 | 25.9
72 h | 3.12 | -9.17 | -6.95 | -2.87 | -1.22 | 27.1

Conditions | drug sensitivity score | relative viability EC50 [µM]
Caco-2 [12] | 1.5 | –
Caco-2 [17] | – | > 10
Calu-3 [11] | 0 | –
Calu-3 [16] | – | > 10
HepG2 [13] | 1.1 | –
U2OS [9] | 0.1 | –
U2OS [14] | – | > 10
Vero E6 [10] | 2.4 | –

C[C@H](N)Cc1c[nH]cn1 [alpha-methylhistamine-dihydrobromide-(S)-(+)]
Conditions | SARS-CoV-2 infection rate, [8] [%] | cell count, [7] [%] | cell viability, Caco-2 [4] [%] | cell viability, Calu-3 [3] [%] | cell viability, HepG2 [5] [%] | cell viability, U2OS [1] [%] | cell viability, Vero E6 [2] [%] | morphology score, [6]
1 nM | – | – | 93.5 | 100 | 96.1 | 98.9 | 94.7 | –
10 nM | – | – | 87.9 | 105 | 103 | 96.9 | 96.5 | –
100 nM | – | – | 95.2 | 98.2 | 93 | 101 | 92.7 | –
0.3 µM | 96 | 109 | – | – | – | – | – | 0.22
1000 nM | – | – | 98.5 | 100 | 100.2 | 101 | 96.5 | –
3 µM | 101 | 104 | – | – | – | – | – | 0.16
10000 nM | – | – | 96.6 | 101 | 94.8 | 99.2 | 105 | –
10 µM | 90 | 104 | – | – | – | – | – | 0.28
30 µM | 104 | 98 | – | – | – | – | – | -0.09

drug-induced phospholipidosis [%], A549-ACE2
Conditions | 0.3 µM | 0.833333 µM | 3.33333 µM | 6.66667 µM | 10 µM | 30 µM
24 h | 1.4 | -2.09 | -0.4 | -0.13 | -1.06 | 2.88
48 h | 2.76 | -1.54 | -1.15 | -0.6 | 0.05 | 3.3
72 h | 2.88 | -1.77 | -1.17 | -0.807 | 0.33 | 4.01

Conditions | drug sensitivity score | relative viability EC50 [µM]
Caco-2 [12] | 0 | –
Caco-2 [17] | – | > 10
Calu-3 [11] | 0 | –
Calu-3 [16] | – | > 10
HepG2 [13] | 0 | –
HepG2 [18] | – | > 10
U2OS [9] | 0 | –
U2OS [14] | – | > 10
Vero E6 [10] | 0 | –
Vero E6 [15] | – | > 10

S=C(S)N1CCCC1 [pyrrolidine-dithiocarbamate]
Conditions | SARS-CoV-2 infection rate, [8] [%] | cell count, [7] [%] | cell viability, Caco-2 [4] [%] | cell viability, Calu-3 [3] [%] | cell viability, HepG2 [5] [%] | cell viability, U2OS [1] [%] | cell viability, Vero E6 [2] [%] | morphology score, [6]
1 nM | – | – | 101 | 93.7 | 95.5 | 101 | 102 | –
10 nM | – | – | 101 | 94.2 | 93.4 | 99.3 | 106 | –
100 nM | – | – | 90.2 | 102 | 96 | 102 | 101 | –
0.1 µM | 108 | 101 | – | – | – | – | – | -0.05
0.3 µM | 93 | 105 | – | – | – | – | – | 0.28
1000 nM | – | – | 30.4 | 99.8 | 106 | 95.4 | 103 | –
1 µM | 85 | 103 | – | – | – | – | – | 0.32
3 µM | 83 | 104 | – | – | – | – | – | 0.39
10000 nM | – | – | 15.7 | 41.7 | 13.1 | 58.4 | 63 | –

drug-induced phospholipidosis [%], A549-ACE2
Conditions | 0.3 µM | 0.833333 µM | 6.66667 µM | 10 µM | 30 µM
24 h | 1.65 | -0.57 | 5.92 | 3.64 | -1.59
48 h | 1.79 | 0.61 | – | – | –
72 h | 3.8 | 0.446 | – | – | –

Conditions | drug sensitivity score | relative viability EC50 [µM]
Caco-2 [12] | 14.2 | –
Caco-2 [17] | – | 0.368
Calu-3 [11] | 3.2 | –
Calu-3 [16] | – | 3.14
HepG2 [13] | 4.4 | –
HepG2 [18] | – | 3.53
U2OS [9] | 2.8 | –
Vero E6 [10] | 1.6 | –
